Test results published in patent US12569482B2, “Methods and compositions for treating idiopathic pulmonary fibrosis” (priority 2018, dated 2026).
Like-named read-outs stand apart in the source and are kept apart here.

Key:
[1] = system: bleomycin-induced lung fibrosis; test: Bleomycin induced IPF mouse model, Example 1 (oral nintedanib or fluconazole); type: in vivo, C57BL/6 mice; conditions: nintedanib 60 mg/kg
Procedure: Forty male C57BL/6 mice (Nanjing Biomedical Research Institute of Nanjing University) were randomly divided into two groups on Day 1, 10 animals for one group (referred to as Control group or Group 1) and 30 for the other. The animals in the Control group were administered intratracheally with PBS at a dose of 2 mL/kg while the others were administered intratracheally with bleomycin (Cat #HY-17565, MCE) at a dose of 0.66 mg/kg.
On Day 5, the mice with bleomycin treatment were divided into three groups at random (referred to as Group 2-4, n=10), and orally administered with vehicle (0.5% Methyl cellulose), nintedanib (Kangmanlin Co. Ltd., prepared in 0.5% Methyl cellulose with a final concentration of 6.0 mg/mL) and fluconazole (Kangmanlin Co. Ltd., prepared in 0.5% Methyl cellulose with a final concentration of 7.0 mg/mL) at daily doses of 10 mL/kg, 60 mg/kg and 70 mg/kg, respectively. The mice in the Control group was administered with vehicle (0.5% Methyl cellulose) at a daily dose of 10 mL/kg. Mice body weights were measured and recorded on Day 1, 5, 12, 19 and 25.
Two hours post drug administration on Day 25, all animals were anaesthetized with pentobarbital (i.p., 65 mg/kg). Blood samples were collected from orbital vein, put in tubes pre-coated with EDTA-K2 (KANG JIAN, Cat #KJ202), centrifuged at 4000×g for 10 minutes at 4° C. and then stored at −80° C. for determination of plasma drug levels. Then, the trachea was exposed, and bronchoalveolar lavage fluid (BALF) was collected from each mouse by injecting 0.3 mL of saline into trachea close to the larynx for three times. After BALF collection, mice were perfused with saline, and all four lung lobes were collected from each mouse, fixed in 10% NBF solution, embedded in paraffin and cut into 5 μm-thick sections. The sections were de-paraffinized with xylene and ethanol and subject to Haematoxylin-Eosin, Masson Trichrome and α-SMA IHC staining.
The bronchoalveolar lavage fluid of 20 μL was mixed with 20 μL of trypan blue to determine the cell number. Then, the cells in the BALF were concentrated using a Cytospinat at 1,000 rpm for 5 minutes, smeared on slides and then stained with Diff-Quik stain. Cell types (alveolar macrophages, neutrophils, or lymphocytes) were determined by counting at least 200 cells using a standard hemocytometer. The rest BALFs were centrifuged and supernatants were collected and stored at −80° C. for soluble collagen analysis.
The Haematoxylin-Eosin staining was used to identify and quantitate the inflammatory cells in the tissues, and the total inflammation area was calculated using the AperioScanScope software.
The sections with Masson Trichrome staining were scored for pulmonary fibrosis according to the modified Ashcroft fibrosis rating criteria in Table 1 below. Each lung lobe was divided into 4 parts according to the distance from the main bronchus, i.e., the upper, upper middle, lower middle and lower parts, which were scored separately and averaged later.
α-SMA is a well characterized marker in fibrosis. Immunohistochemistry staining of α-SMA is often used to characterize and quantitate the tissue fibrosis. Increased staining of α-SMA often reflects accumulation of collagen-producing myofibroblasts. Before α-SMA IHC staining, the de-paraffinized sections were treated with citrate antigen retrieval solution (0.01 N citrate buffer, pH 6.0) at 100° C. for 10 minutes, and then incubated with rabbit polyclonal anti-α-SMA (1:400, ab5694, Abcam) for 1 hour followed by goat anti-rabbit HRP (K4003, Dako). DAB substrate kit (DAB0031, Maixin, Shanghai) was used for chromogenic staining. All sections were further counter-stained with hematoxylin. […] α-SMA staining areas were calculated using the AperioImageScope program.
Statistical analysis was performed using student's T-test, one-way or two-way ANOVA followed by post-hoc Dunnett's test if significant. […] The difference was considered significant when p<0.05. *p<0.05, **p<0.01, ***[…].

[2] = Plasma drug levels, Example 2; type: in vivo, C57BL/6 mice; conditions: C57BL/6, mouse
Procedure: On Day 5, the mice with bleomycin treatment were divided into four groups at random (referred to as Group 2-5, n=10), and orally administered with vehicle (DMSO: PEG400=1:9, V/V), itraconazole (Kangmanlin Co. Ltd. prepared in DMSO/PEG400 with a final concentration of 1.5 mg/mL), nintedanib (Kangmanlin Co. Ltd., prepared in DMSO/PEG400 with a final concentration of 6.0 mg/mL), and itraconazole+nintedanib (prepared in DMSO/PEG400 with final concentrations of 1.5 mg/mL and 6.0 mg/mL) at daily doses of 10 mL/kg, 15 mg/kg, 60 mg/kg and 15+60 mg/kg, respectively. The mice in the Control group was administered with vehicle (DMSO/PEG400) at a daily dose of 10 mL/kg. Mice body weights were measured and recorded on Day 1, 5, 12, 19 and 21.
Two hours post drug administration on Day 21, all animals were anaesthetized with pentobarbital (i.p., 60 mg/kg). Blood sample, bronchoalveolar lavage fluid (BALF) and lung lobes were collected from each mouse and then processed following the protocols in Example 1.

concentration at 2 h ([2]; oral, Day 21, itraconazole 15 mg/kg, nintedanib 60 mg/kg p.o. daily, read-out: two-hour post dosing plasma level, single agent): 310 ng/mL
concentration at 2 h ([2]; po, Day 21, 15+60 mg/kg p.o. daily, read-out: two-hour post dosing plasma drug level, itraconazole and nintedanib combined in administration): 397 ng/mL
Structure (SMILES): COC(=O)c1ccc2c(c1)NC(=O)/C2=C(\Nc1ccc(N(C)C(=O)CN2CCN(C)CC2)cc1)c1ccccc1 [nintedanib]
reduction of lung inflammation area ([1]; Haematoxylin-Eosin staining, fluconazole 70 mg/kg p.o. daily): 84%
reduction of modified Ashcroft score ([1]; Masson Trichrome staining, fluconazole 70 mg/kg p.o. daily): 39%
anti-IPF activities / fibrosis related endpoint measurements (overall) ([1]; fluconazole 70 mg/kg daily dose): efficacious
total cell number and macrophage/monocyte number in BALF ([1]; oral daily Day 5-25): reduced cell number to some extent
BALF collagen levels ([1]; oral daily Day 5-25, fluconazole 70 mg/kg, vs bleomycin + vehicle): significantly reduced collagen levels
reduction of α-SMA staining area ([1]; α-SMA IHC, fluconazole 70 mg/kg p.o. daily): 39%
